Assay results from patent publication US20240309043A1, “THERAPEUTICALLY ACTIVE STEROIDAL DERIVATIVES” (Organon R&D Finland Ltd., priority 2017, published 2024).

Key:
Format in all cases: biochemical
[1] = target: T1, recombinant human 17β-HSD1 (Homo sapiens, UniProt P14061); assay: Inhibition of recombinant human 17β-HSD1; details: inhibitor 100 nM; 30 nM estrone, 1 mM NADPH, 30 min RT
T1 construct: made in house; host or cells: Sd9 (Sf9) insect cells, baculovirus (Bac to Bac Expression System)
T1 sequence (P14061 1-328): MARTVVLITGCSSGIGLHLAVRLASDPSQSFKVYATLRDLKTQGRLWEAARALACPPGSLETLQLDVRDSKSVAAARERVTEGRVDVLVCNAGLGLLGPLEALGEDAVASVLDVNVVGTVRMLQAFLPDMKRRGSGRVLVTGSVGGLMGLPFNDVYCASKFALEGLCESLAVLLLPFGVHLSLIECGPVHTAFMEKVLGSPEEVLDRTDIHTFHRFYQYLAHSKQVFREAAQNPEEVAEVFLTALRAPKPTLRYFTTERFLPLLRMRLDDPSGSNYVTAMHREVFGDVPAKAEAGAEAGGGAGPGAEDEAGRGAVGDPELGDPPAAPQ
Procedure: 17β-HSD1 production and isolation: Recombinant baculovirus was generated by the “Bac to Bac Expression System” (Invitrogen). Recombinant bacmid was transfected to Sd9 insect cells using “Cellfectin Reagent” (Invitrogen). 60 h later cells were harvested; the microsomal fraction was isolated as described by Puranen, T. J., Poutanen, M. H., Peltoketo, H. E., Vihko, P. T. and Vihko, R. K. (1994) Site-directed mutagenesis of the putative active site of human 17 β-hydroxysteroid dehydrogenase type 1. Biochem. J. 304: 289-293. Aliquots were stored frozen until determination of enzymatic activity.
Assay—Inhibition of recombinant human 17β-HSD1: Recombinant protein (1 μg/ml) was incubated in 20 mM KH2PO4 pH 7.4 with 30 nM estrone (including 800 000 cpm/ml of ^3H-estrone) and 1 mM NADPH for 30 min at RT, in the presence of the potential inhibitor at concentrations 1 μM or 0.1 μM. Inhibitor stock solutions were prepared in DMSO. Final concentration of DMSO was adjusted to 1% in all samples. The enzyme reaction was stopped by addition of 10% trichloroacetic acid (final concentration). Samples were centrifuged in a microtiter plate at 4000 rpm for 10 min. Supernatants were applied to reverse phase HPLC on a Waters Symmetry C18 column, equipped with a Waters Sentry Guard column. Isocratic HPLC runs were performed at RT at a flow rate of 1 ml/min in acetonitrile:water 48:52 as running solvent. Radioactivity was monitored in the eluate by a Scintillation Analyzer. Total radioactivity for estrone and estradiol were determined in each sample and percent conversion of estrone to estradiol was calculated according to the following formula:
(§1) [formula] Percent inhibition was calculated flowingly: % inhibition=100−% conversion

[2] = system: HSD1 enzyme that is expressed in rabbit placenta tissue; assay: Inhibition of E1 to E2 conversion in rabbit placenta tissue homogenate; details: inhibitor 100 nM, 30 nM estrone, 30 min
Procedure: The assay is based on an enzymatic reaction where HSD1 enzyme that is expressed in rabbit placenta tissue converts its natural substance estrone (E1) to estradiol (E2) in the presence of a co-factor β-NADPH.
Homogenization of rabbit placenta tissue: Weight a piece of the frozen tissue into a Precellys ck28 bead tube. Add buffer solution (20 mM KH2PO4 with 1 mM EDTA, pH 7,4) in 1:2 ratio (e.g. 300 mg of tissue:600 μl reaction buffer solution). Insert the bead tubes to homogenizer and homogenize 2×30 s. 6000 rpm. Centrifugated 5 min., 2600 rpm at +4° C. and collect supernatant. Aliquots of homogenate are stored in −80° C.
Assay—Inhibition of E1 to E2 conversion in rabbit placenta tissue: The reaction takes place in a buffer solution (20 mM KH2PO4 with 1 mM EDTA, pH 7,4), including appropriate amount of rabbit placenta homogenate, co-factor (1 mM β-NADPH), Substrate (30 nM estrone), labelled substrate as tracer (5 nM [^3H]-estrone). During a 30-minute incubation part of the estrone is converted to estradiol. The reaction is stopped by lowering the pH to 1 with 10% trichloro acetic acid (TCA). The substrate and conversion products are analyzed by HPLC and a Scintillation counter analyzer. Total radioactivity for estrone and estradiol were determined in each sample and percent conversion of estrone to estradiol was calculated according to the following formula:
Percent inhibition was calculated flowingly: % inhibition=100−% conversion.

[3] = target: T2, recombinant human 17β-HSD2 (Homo sapiens, UniProt P37059); assay: Inhibition of recombinant human 17β-HSD2; details: inhibitor 1 μM; 50 nM estradiol, 1 mM NADH, 30 min RT
T2 construct: made in house; host or cells: Sd9 (Sf9) insect cells, baculovirus (Bac to Bac Expression System)
T2 sequence (P37059 1-387): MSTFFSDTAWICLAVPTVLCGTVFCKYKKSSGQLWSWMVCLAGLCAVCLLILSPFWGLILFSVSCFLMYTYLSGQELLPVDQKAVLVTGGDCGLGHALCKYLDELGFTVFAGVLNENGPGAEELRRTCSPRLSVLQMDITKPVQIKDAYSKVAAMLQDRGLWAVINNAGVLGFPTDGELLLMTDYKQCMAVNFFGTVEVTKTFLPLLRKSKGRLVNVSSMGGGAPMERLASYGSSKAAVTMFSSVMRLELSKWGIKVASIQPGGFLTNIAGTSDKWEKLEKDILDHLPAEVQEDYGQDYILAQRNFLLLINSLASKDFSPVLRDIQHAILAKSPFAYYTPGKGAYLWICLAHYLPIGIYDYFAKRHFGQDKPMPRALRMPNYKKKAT
Procedure: 17β-HSD2 production and isolation: Similarly to 17β-HSD1 the Recombinant baculovirus was generated by the “Bac to Bac Expression System” (Invitrogen). Recombinant bacmid was transfected to Sd9 insect cells using “Cellfectin Reagent” (Invitrogen). 60 h later cells were harvested and supernatant were fractionated by the following protocol: • cells were dissolved into 40 ml of A-buffer (40 mM TRIS, pH 8.0, 20% glycerol, 20 μM NAD, 0.4 mM PMSF, 150 mM NaCl, 0.5% dodecyl-β-maltoside+protease inhibitor cocktail) • cells were sonicated • lysate was incubated on ice for 15 min • lysate was centrifuged 5000 rpm 15 min, +4° C. • centrifugation of the supernatant 180 000 g 30 min, +4° C. • pellet was dissolved into 8 ml of A-buffer • not resuspended material was removed by centrifugation 5000 rpm min, +4° C. • the clear supernatant was divided into 100 μl aliquots and were stored frozen until determination of enzymatic activity.
The amount of 17β-HSD2 was analysed by immunoblotting and total protein concentration of each extract batch was determined.
Assay—Inhibition of recombinant human 17β-HSD2: Recombinant protein (4 μg/ml) was incubated in 20 mM KH2PO4 pH 8.5 with 50 nM estradiol (including 800 000 cpm/ml of ^3H-estradiol) and 1 mM NADH for 30 min at RT, in the presence of the potential inhibitor at concentrations 1 μM or 0.1 μM. Inhibitor stock solutions were prepared in DMSO. Final concentration of DMSO was adjusted to 1% in all samples. The enzyme reaction was stopped by addition of 10% trichloroacetic acid (final concentration). Samples were centrifuged in a microtiter plate at 4000 rpm for 10 min. Supernatants were applied to reverse phase HPLC on a Waters Symmetry C18 column, equipped with a Waters Sentry Guard column. Isocratic HPLC runs were performed at RT at a flow rate of 1 ml/min in acetonitrile:water 48:52 as running solvent. Radioactivity was monitored in the eluate by a Scintillation Analyzer. Total radioactivity for estrone and estradiol were determined in each sample and percent conversion of estradiol to estrone was calculated according to the following formula:
as §1

SMILES | inhibition at 0.1 µM [1] [%] | Rabbit placenta inhibition % @100 nM [2] [%] | inhibition at 1 µM [3] [%]
CCN(CC)C(=O)CC[C@@H]1C/C(=N\O)[C@@]2(C)CCC3c4ccc(Cl)cc4CCC3C12 (stereo partly drawn) [Compound 52, 3-((13S,15R,E)-3-chloro-17-(hydroxyimino)-13-methyl-7,8,9,11,12,13,14,15,16,17-decahydro-6H-cyclopenta[a]phenanthren-15-yl)-N,N-diethylpropanamide] | 64 | 6 | 2
C[C@]12CCC3c4ccccc4CCC3C1[C@H](CCC(=O)Nc1cc3c([nH]c1=O)CCCC3)C/C2=N\O (stereo partly drawn) [Compound 94, 3-((13S,15R,E)-17-(hydroxyimino)-13-methyl-7,8,9,11,12,13,14,15,16,17-decahydro-6H-cyclopenta[a]phenanthren-15-yl)-N-(2-oxo-1,2,5,6,7,8-hexahydroquinolin-3-yl)propanamide] | 63 | 8 | 0
C[C@]12CCC3c4ccc(F)cc4CCC3C1[C@H](CCC(=O)Nc1ccc(F)cn1)C/C2=N\O (stereo partly drawn) [Compound 26, 3-((13S,15R,E)-3-fluoro-17-(hydroxyimino)-13-methyl-7,8,9,11,12,13,14,15,16,17-decahydro-6H-cyclopenta[a]phenanthren-15-yl)-N-(5-fluoropyridin-2-yl)propanamide] | 49 | 10 | 8
C[C@]12CCC3c4ccc(F)cc4CCC3C1[C@H](CCC(=O)Nc1cccnn1)C/C2=N\O (stereo partly drawn) [Compound 34, 3-((13S,15R,E)-3-fluoro-17-(hydroxyimino)-13-methyl-7,8,9,11,12,13,14,15,16,17-decahydro-6H-cyclopenta[a]phenanthren-15-yl)-N-(pyridazin-3-yl)propanamide] | 23 |  | 9
CN(C)C(=O)c1ccc(NC(=O)CC[C@@H]2C/C(=N\O)[C@@]3(C)CCC4c5ccccc5CCC4C23)nc1 (stereo partly drawn) [Compound 92, 6-(3-((13S,15R,E)-17-(hydroxyimino)-13-methyl-7,8,9,11,12,13,14,15,16,17-decahydro-6H-cyclopenta[a]phenanthren-15-yl)propanamido)-N,N-dimethylnicotinamide] | 37 | 15 | 9
C[C@]12CCC3c4cccc(F)c4CCC3C1[C@H](CCC(=O)Nc1ccccn1)C/C2=N\O (stereo partly drawn) [Compound 138, 3-((13S,15R,E)-4-fluoro-17-(hydroxyimino)-13-methyl-7,8,9,11,12,13,14,15,16,17-decahydro-6H-cyclopenta[a]phenanthren-15-yl)-N-(pyridin-2-yl)propanamide] | 89 | 36 | 
CN(C(=O)CC[C@@H]1C/C(=N\O)[C@@]2(C)CCC3c4cccc(F)c4CCC3C12)C1COC1 (stereo partly drawn) [Compound 12, 3-((13S,15R,E)-4-fluoro-17-(hydroxyimino)-13-methyl-7,8,9,11,12,13,14,15,16,17-decahydro-6H-cyclopenta[a]phenanthren-15-yl)-N-methyl-(oxetan-3-yl)propanamide] | 73 |  | 2
C[C@]12CCC3c4cccc(F)c4CCC3C1[C@H](CCC(=O)Nc1cc3c([nH]c1=O)CCCC3)C/C2=N\O (stereo partly drawn) [Compound 178, 3-((13S,15R,E)-4-fluoro-17-(hydroxyimino)-13-methyl-7,8,9,11,12,13,14,15,16,17-decahydro-6H-cyclopenta[a]phenanthren-15-yl)-N-(2-oxo-12,5,6,7,8-hexahydroguinolin-3-yl)propanamide] | 95 |  | 9
C[C@]12CCC3c4ccc(F)cc4CCC3C1[C@H](CCC(=O)Nc1nncs1)C/C2=N\O (stereo partly drawn) [Compound 38, 3-((13S,15R,E)-3-fluoro-17-(hydroxyimino)-13-methyl-7,8,9,11,12,13,14,15,16,17-decahydro-6H-cyclopenta[a]phenanthren-15-yl)-N-(1,3,4-thiadiazol-2-yl)propanamide] | 21 |  | 3
